Laboratory results taken from patent US20030108986A1, “Compositions and methods comprising G-protein coupled receptors” (Euroscreen, S.A., priority 2001, published 2003).

What was measured:
[1] = molecular target: T1, GPCRx11 (Homo sapiens, UniProt Q96LB1); assay: aequorin-based assay of GPCRx11 activation by angiopeptin; format: cell-based
T1 construct: expressed in transfected cells; host or cells: CHO-K1
T1 sequence (Q96LB1 1-330): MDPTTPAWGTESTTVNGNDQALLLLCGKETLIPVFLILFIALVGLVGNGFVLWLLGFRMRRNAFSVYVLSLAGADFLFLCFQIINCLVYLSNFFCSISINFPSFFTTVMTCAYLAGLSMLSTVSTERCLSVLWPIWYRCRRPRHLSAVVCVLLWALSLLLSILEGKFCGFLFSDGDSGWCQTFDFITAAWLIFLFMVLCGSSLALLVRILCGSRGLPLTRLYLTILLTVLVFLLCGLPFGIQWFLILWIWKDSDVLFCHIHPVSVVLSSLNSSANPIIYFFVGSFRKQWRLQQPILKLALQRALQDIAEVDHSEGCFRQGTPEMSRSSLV
Protocol: As used herein, the term “aequorin-based assay” refers to an assay for GPCR activity that measures elevations in intracellular calcium induced by activated GPCRs, wherein intracellular calcium flux is measured by the luminescence of mitochondiral aequorin expressed in the cell.
The aequorin assay takes advantage of the responsiveness of mitochondrial apoaequorin to intracellular calcium release induced by the activation of GPCRs (Stables et al., 1997, Anal. Biochem. 252:115-126; Detheux et al., 2000, J. Exp. Med., 192 1501-1508; both of which are incorporated herein by reference). Briefly, GPCR-expressing clones are transfected to coexpress mitochondrial apoaequorin and Gα16. Cells are incubated with 5 μM Coelenterazine H (Molecular Probes) for 4 hours at room temperature, washed in DMEM-F12 culture medium and resuspended at a concentration of 0.5×10^6 cells/ml. Cells are then mixed with test agonist, or ligand molecules and light emission by the aequorin is recorded with a luminometer for 30 sec. Results are expressed as Relative Light Units (RLU). Controls include assays using membranes isolated from cells not expressing GPCRs (mock transfected), in order to exclude possible non-specific effects of the candidate compound. […]

[2] = molecular target: GPCRx11 (human) (UniProt Q96LB1)

Compound | ligand of the receptor GPCRx11 ([1]; GPCRx11 (SEQ ID NO: 12)) | EC50 ([1]; GPCRx11 polypeptide bound by angiopeptin, transfected CHO-K1 cells (FIG. 16), read-out: EC50 of stimulation of mitochondrial aequorin fluorescence) [nM] | EC50 (read off the curve); aequorin luminescence (RLU) in transfected CHO-K1 cells [2] [nM] | EC50; aequorin luminescence (RLU) in transfected CHO-K1 cells [2] [nM]
CC(C)[C@@H]1NC(=O)[C@H](CCCCN)NC(=O)[C@@H](Cc2c[nH]c3ccccc23)NC(=O)[C@H](Cc2ccc(O)cc2)NC(=O)[C@@H](NC(=O)[C@H](N)Cc2ccc3ccccc3c2)CSSC[C@@H](C(=O)N[C@H](C(N)=O)[C@@H](C)O)NC1=O [angiopeptin] | natural ligand | ≤ 160 | – | –
angiopeptin (peptide) | – | – | 100 | 159
